# Patent publication US20170050989A1, “Molecular Imaging Probes” (THE GENERAL HOSPITAL CORPORATION, priority 2013, published 2017)
# “Also recorded” adds a separate entry of the source.
# Key:
# [1] = system: fibrotic liver (CCl4 mice); test: MR liver imaging in CCl4 mouse model of liver fibrosis (18 weeks); type: in vivo; conditions: fibrotic (CCl4-treated) mouse, pre vs 30-minute post administration
# Description: Liver Fibrosis: Strain A/J male mice (Jackson Laboratories, Bar Harbor, Me.) were administered 0.1 mL of a 40% solution of CCl4 (Sigma, St. Louis, Mo.) in olive oil by oral gavage three times a week for 18 weeks to induce fibrosis. Controls received only pure olive oil. Animals were imaged one week after the last injection to avoid acute effects of CCl4.
# Mice were imaged with T1-weighted imaging before and after bolus (tail vein) injection of probe (Compound 1 or Compound 2) using a 4.7T scanner. Image visualization and quantification was performed using the DICOM viewer Osirix. A region of interest (ROI) was placed over the entire liver section while avoiding major blood vessels. Axial slices that cover the entire liver is analyzed (>10 slices/mouse). The signal intensity of the muscle within each slice was also quantified by a separate ROI. To estimate noise, an ROI of the air outside the animal was measured and the standard deviation of this measurement was taken. The same analysis was performed on the pre and 30-min post injection images (3D FLASH sequence).
# Contrast to noise ratio (CNR) is calculated using equation (1). SI=signal intensity, SD=standard deviation, and delta CNR is the absolute difference between the pre- and post- images (2).
# (§1) CNR=(SIliver−SImuscle)/SDair (1)
# Delta CNR={CNRpost−CNRpre} (2)
# [2] = molecular target: T1, unmodified bovine serum albumin (BSA) (Bos taurus, UniProt P02769); test: T1 relaxivity/relaxation after incubation with unmodified BSA; type: binding
# T1 construct: A BSA protein standard without the addition of glutaraldehyde was run in parallel as a control
# Description: (§2) A solution of glutaraldehyde (100 μL, 25% wt solution in water) was added to a solution of bovine serum albumin (100 mg) dissolved in phosphate buffered saline (2 mL, pH 7.4, 0.25 mM) and left to stir at room temperature for 5 min. To this solution was added sodium cyanoborohydride (25 mg) and the solution stirred overnight at 4° C. A BSA protein standard without the addition of glutaraldehyde was run in parallel as a control. Both protein mixtures were purified on PD-10 Sephadex G25 desalting columns (GE Healthcare), eluted with water, to remove excess glutaraldehyde. Protein concentrations were assessed using the ‘BCA Protein Assay Kit’ (Thermo Scientific). […] The aldehyde concentration of each protein was estimated using a standard DNPH literature protocol.
# (§3) Aliquots of BSA-ALD (3 mg, 150 μL) or BSA (3mg, 163 μL) were treated for 24 h at 37° C. with either Compound 1 or Compound 2 at a range of concentrations (0.1-1.0 mM, concentrations equivalent to [Gd]:[aldehyde] ratio of 1:1, 2:1, 3:1, 4:1 and 5:1) with a total volume of 300 μl maintained for all samples. After 24 h longitudinal (T1) relaxation measurements were recorded using a Bruker mq20 Minispec at 0.47 T and 37° C. […] Relaxivity (r1) was determined from the slope of a plot of 1/T1 vs [Gd] for 5 concentrations of Gd(III). […]
# [3] = molecular target: T1, unmodified bovine serum albumin (BSA); test: In vitro binding assay: Gd bound to protein after ultrafiltration (ICP); conditions: protein fraction after separation from free solution
# [4] = T1 relaxivity of probe in solution (water) without protein; type: physicochemical; conditions: no protein, 310K, pH 7, 0.47 T
# Description: Aliquots of BSA-ALD (3 mg, 150 μL) or BSA (3mg, 163 μL) were treated for 24 h at 37° C. with either Compound 1 or Compound 2 at a range of concentrations (0.1-1.0 mM, concentrations equivalent to [Gd]:[aldehyde] ratio of 1:1, 2:1, 3:1, 4:1 and 5:1) with a total volume of 300 μl maintained for all samples. After 24 h longitudinal (T1) relaxation measurements were recorded using a Bruker mq20 Minispec at 0.47 T and 37° C. Longitudinal (T1) relaxation was acquired via an inversion recovery experiment on 10 inversions of duration ranging between 0.05×T1 and 10×T1. Relaxivity (r1) was determined from the slope of a plot of 1/T1 vs [Gd] for 5 concentrations of Gd(III).
# Solutions of Compound 1 and Compound 2 (concentration range: 0.1 mM-1.0 mM, in water) were run in parallel without protein as standard controls.
# [5] = molecular target: T2, modified bovine serum albumin (BSA-ALD) (Bos taurus, UniProt P02769); test: In vitro binding assay: Gd bound to protein after ultrafiltration (ICP); conditions: protein fraction after separation from free solution
# T2 construct: A solution of glutaraldehyde (100 μL, 25% wt solution in water) was added to a solution of bovine serum albumin
# [6] = system: liver fibrosis (CCl4-treated mice); test: MR liver imaging in mice after 6 or 12 weeks of CCl4 treatment, or 6 weeks plus recovery; type: in vivo; conditions: for ΔCNR (liver:muscle contrast-to-noise ratio): 15-minute post injection; for liver signal enhancement post vs pre injection (in words): 15 min post injection
# Description: Strain A/J male mice (Jackson Laboratories, Bar Harbor, Me.) were administered 0.1 ml of a 40% solution of CCl4 (Sigma, St. Louis, Mo.) in olive oil by oral gavage, three times a week for either 6 (n=14) or 12 weeks (n=10), to induce fibrosis at different stages. Controls received only pure olive oil (n=12).
# Animals were imaged prior to and immediately following injection of the imaging probe. After imaging, the animals were sacrificed and the liver was removed for histopathological analyses.
# Animals were anesthetized with isoflurane (1-2%) and placed in a specially designed cradle with body temperature maintained at 37° C. The tail vein was cannulated for intravenous (iv) delivery of the contrast agent while the animal was positioned in the scanner. Imaging was performed at 4.7T using a small bore animal scanner (Bruker Biospec) with a custom-built volume coil. The mouse was imaged prior to and following a bolus iv injection of Compound 1 (100 μmol/kg). The image sequence was a three dimensional fast low angle shot (3D FLASH) acquisition with repetition time (TR=15.3 ms), echo time (TE=1.54 ms), flip angle=15°, field of view 48×24×24 mm and matrix size 192×96×96 for a resolution of 250 μm isotropic and […] used 4 averages.
# Image analysis was performed using the Osirix software. A region of interest (ROI) was manually traced encompassing the liver parenchyma while avoiding major blood vessels. A second ROI was placed on the dorsal muscle visible in the same image slice to quantify the signal intensity in the muscle for comparison. Seven ROIs were placed in the field of view without any tissue (air) to measure the noise in the image. More than 20 axial slices per mouse across the entire liver was analyzed in this fashion. The same analysis was performed on the pre-injection and 15-minute post injection images.
# To quantify signal enhancement in the liver, contrast to noise ratio (CNR) was calculated using equation 1 below. SI=signal intensity, SD=standard deviation. An average of all image slices was calculated for the pre-injection images (CNRpre) and for the post-injection images (CNRpos). The liver enhancement for each mouse was expressed as ΔCNR, the difference between the pre-injection CNR and post-injection CNR (equation 2).
# as §1
# Differences among groups were tested with repeated measures ANOVA, followed by Student-Newman-Keuls post hoc test with P<0.05 considered as significant.
# Strain A/J male mice (Jackson Laboratories, Bar Harbor, Me.) were administered 0.1 ml of a 40% solution of CCl4 (Sigma, St. Louis, Mo.) in olive oil by oral gavage, three times a week for 6 weeks and then allowed to recover for an additional 6 weeks (n=7). Animals were imaged prior to and immediately following injection of the imaging probe using the same protocol as in the previous example.
# We compared Compound 2 to Compound 1 in terms of their ability to image fibrosis. Compound 2 has a very similar structure to Compound 1 but the hydrazide functional group has been dimethylated. The resulting dimethylhydrazide in Compound 2 is incapable of undergoing irreversible reaction with aldehyde moieties. Using the same animal model and imaging paradigm as described in the previous Example, mice that had been treated with CCl4 for 12 weeks or mice that received vehicle for 12 weeks were imaged.
# [7] = molecular target: T2, modified bovine serum albumin (BSA-ALD); test: T1 relaxivity/relaxation after incubation with aldehyde-modified BSA; type: binding
# Description: as §2, §3
# T2 sequence (P02769 25-607): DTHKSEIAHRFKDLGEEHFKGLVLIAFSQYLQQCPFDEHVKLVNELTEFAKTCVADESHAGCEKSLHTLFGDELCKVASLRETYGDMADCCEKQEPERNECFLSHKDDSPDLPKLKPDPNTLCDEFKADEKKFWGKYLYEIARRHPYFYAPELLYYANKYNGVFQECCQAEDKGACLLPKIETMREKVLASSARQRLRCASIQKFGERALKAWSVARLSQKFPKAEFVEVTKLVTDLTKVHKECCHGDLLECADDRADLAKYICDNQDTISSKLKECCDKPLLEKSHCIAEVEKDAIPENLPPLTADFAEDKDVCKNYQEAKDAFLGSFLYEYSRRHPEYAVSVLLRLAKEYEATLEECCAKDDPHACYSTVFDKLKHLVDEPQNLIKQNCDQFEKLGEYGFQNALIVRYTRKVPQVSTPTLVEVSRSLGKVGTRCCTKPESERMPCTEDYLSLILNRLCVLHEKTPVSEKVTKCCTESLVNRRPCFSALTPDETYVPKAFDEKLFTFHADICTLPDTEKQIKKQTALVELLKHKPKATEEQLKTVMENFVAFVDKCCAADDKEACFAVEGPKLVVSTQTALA
# T1 sequence (P02769 25-607): as above
compound,measurement,setting,value
"CN(C)NC(=O)CC[C@H](C(=O)O)N1CCN(CC(=O)[O-])CCN(CC(=O)[O-])CCN(CC(=O)[O-])CC1.[Gd+3] [Compound 2, (R)-2,2′,2″-(10-(1-carboxy-4-(2,2-dimethylhydrazinyl)-4-oxobutyl)-1,4,7,10-tetraazacyclododecane-1,4,7-triyl)triacetic acid Gadolinium complex]",MR signal enhancement of liver,[1],very little enhancement; also recorded: little MR signal enhancement
same,change in T1 relaxation time compared to standards,"[2]; fractions after separation, BSA (FIG. 5A)",did not differ significantly
same,T1 relaxivity with BSA,"[2]; incubated 24 h at 37° C. with BSA, 310K, pH 7, 0.47 T",4.20 mM⁻¹ s⁻¹
same,Gd bound to protein,[3],No statistically significant amount
same,"T1 relaxivity, standard solution measurement",[4],4.09 mM⁻¹ s⁻¹
same,Gd bound to protein,[5],No statistically significant amount
same,"increase in ΔCNR, 12-week CCl4-treated vs vehicle",[6]; 12-week CCl4-treated animals vs vehicle,no difference
same,ΔCNR (liver:muscle contrast-to-noise ratio),[6]; 12-week CCl4-treated mice,0.5±0.5
same,liver signal enhancement post vs pre injection (in words),[6]; 12-week CCl4-treated mice,slight enhancement
same,ΔCNR (liver:muscle contrast-to-noise ratio),"[6]; vehicle (olive oil) treated control mice, probe injected iv",0.6±0.9
same,liver signal enhancement post vs pre injection (in words),[6]; vehicle treated mice,slight enhancement
same,T1 relaxivity with BSA-ALD,"[7]; incubated 24 h at 37° C. with BSA-ALD, 310K, pH 7, 0.47 T",4.22 mM⁻¹ s⁻¹
same,change in T1 relaxation time of protein fraction compared to solution controls,"[7]; protein fraction after separation, BSA-ALD (FIG. 5A)",did not differ significantly
